Experimental data published in patent US20110230481A2, “DERIVATIVES OF TETRABROMOBENZIMIDAZOLE, A PROCESS FOR THE PREPARATION THEREOF, A PHARMACEUTICAL COMPOSITION COMPRISING THE SAME, A METHOD OF USING THE SAME, A METHOD FOR MODULATING OR REGULATING SERINE/THREONINE KINASES, AND SERINE/THREONINE KINASES MODULATING AGENT” (SELVITA S.A., priority 2009, published 2011).

Tests used:
Assay in all cases: KINOMEscan Max
Assay type in all cases: binding
AURKB = AURKB (Homo sapiens, UniProt Q96GD4)
How it was run: (§1)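 Steps: mix DNA-tagged kinase, immobilized active-site ligand and compound; let compound compete with ligand for the kinase; quantify the kinase retained by qPCR on its DNA tag.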

PRKCE = target: T1, PRKCE (Homo sapiens, UniProt Q02156)
T1 construct: DNA tag (qPCR read-out); purchased Ambit Kinomescan
How it was run: as §1

SGK3 = target: T2, SGK3 (Homo sapiens, UniProt Q96BR1)
T2 construct: DNA tag (qPCR read-out)
How it was run: as §1

LATS2 = target: T3, LATS2 (Homo sapiens, UniProt Q9NRM7); conditions: 1 μM
T3 construct: purchased Ambit (KINOMEscan Max service)
How it was run: as §1

p38-gamma = p38-gamma (Homo sapiens, UniProt P53778)
How it was run: as §1

CAMK1 = target: T4, CAMK1 (Homo sapiens, UniProt Q14012)
T4 construct: purchased Ambit Kinomescan (contract screening)
How it was run: as §1

AURKA = AURKA (Homo sapiens, UniProt O14965)
How it was run: as §1

CAMK2D = target: T5, CAMK2D (Homo sapiens, UniProt Q13557)
T5 construct: DNA tag (qPCR label); purchased Ambit Kinomescan (contract screening)
How it was run: as §1

KIT(A829P) = target: T6, KIT(A829P) (Homo sapiens, UniProt P10721, A829P)
T6 construct: purchased Ambit Kinomescan (contract panel)
How it was run: as §1

SYK = target: T7, SYK (Homo sapiens, UniProt P43405); conditions: 1 μM
T7 construct: DNA tag (qPCR read-out)
How it was run: as §1

ALK = target: T8, ALK (Homo sapiens, UniProt Q9UM73)
T8 construct: DNA tag (qPCR label); purchased Ambit Kinomescan (contract screening)
How it was run: as §1

MYLK2 = target: T9, MYLK2 (Homo sapiens, UniProt Q9H1R3)
T9 construct: purchased Ambit (KINOMEscan Max service)
How it was run: as §1

DRAK1 = DRAK1 (Homo sapiens, UniProt Q9UEE5)
How it was run: as §1

ROCK2 = target: T10, ROCK2 (Homo sapiens, UniProt O75116)
T10 construct: purchased Ambit (KINOMEscan Max service)
How it was run: as §1

WEE1 = WEE1 (Homo sapiens, UniProt P30291)
How it was run: as §1

DCAMKL1 = DCAMKL1 (Homo sapiens, UniProt O15075); conditions: 1 μM
How it was run: as §1

PRKCQ = PRKCQ (Homo sapiens, UniProt Q04759)
How it was run: as §1

DYRK1A = target: T11, DYRK1A (Homo sapiens, UniProt Q13627)
T11 construct: DNA tag (qPCR read-out); purchased Ambit Kinomescan
How it was run: as §1

MAP3K4 = target: T12, MAP3K4 (Homo sapiens, UniProt Q9Y6R4)
T12 construct: purchased Ambit Kinomescan (contract panel)
How it was run: as §1

HIPK3 = target: T13, HIPK3 (Homo sapiens, UniProt Q9H422)
T13 construct: DNA tag (qPCR read-out); purchased Ambit Kinomescan
How it was run: as §1

TAOK3 = target: T14, TAOK3 (Homo sapiens, UniProt Q9H2K8)
T14 construct: purchased Ambit Kinomescan (contract screening service)
How it was run: as §1

TEC = target: T15, TEC (Homo sapiens, UniProt P42680)
T15 construct: purchased Ambit Kinomescan (contract screening service)
How it was run: as §1

ERBB3 = target: T16, ERBB3 (Homo sapiens, UniProt P21860)
T16 construct: purchased Ambit (KINOMEscan Max service)
How it was run: as §1

CAMK4 = target: T17, CAMK4 (Homo sapiens, UniProt Q16566)
T17 construct: DNA tag (qPCR label); purchased Ambit Kinomescan (contract screening)
How it was run: as §1

PIK3CD = target: T18, PIK3CD (Homo sapiens, UniProt O00329)
T18 construct: DNA tag (qPCR read-out)
How it was run: as §1

TRKB = TRKB (Homo sapiens, UniProt Q16620)
How it was run: as §1

[1] = target: ABL1(F317L)-phosphorylated (Homo sapiens, UniProt P00519, F317L)
How it was run: as §1

PDPK1 = target: T19, PDPK1 (Homo sapiens, UniProt O15530)
T19 construct: purchased Ambit (KINOMEscan Max service)
How it was run: as §1

INSR = target: T20, INSR (Homo sapiens, UniProt P06213)
T20 construct: DNA tag (qPCR read-out)
How it was run: as §1

PCTK2 = PCTK2 (Homo sapiens, UniProt Q00537)
How it was run: as §1

RET(V804M) = target: T21, RET(V804M) (Homo sapiens, UniProt P07949, V804M)
T21 construct: DNA tag (qPCR read-out)
How it was run: as §1

CDK11 = CDK11 (Homo sapiens, UniProt Q9BWU1); conditions: 1 μM
How it was run: as §1

PIK3CA(M1043I) = target: T22, PIK3CA(M1043I) (Homo sapiens, UniProt P42336, M1043I)
T22 construct: DNA tag (qPCR read-out)
How it was run: as §1

CDKL3 = target: T23, CDKL3 (Homo sapiens, UniProt Q8IVW4)
T23 construct: purchased Ambit Kinomescan (contract screening)
How it was run: as §1

FLT4 = FLT4 (Homo sapiens, UniProt P35916)
How it was run: as §1

T18 sequence (O00329 whole entry): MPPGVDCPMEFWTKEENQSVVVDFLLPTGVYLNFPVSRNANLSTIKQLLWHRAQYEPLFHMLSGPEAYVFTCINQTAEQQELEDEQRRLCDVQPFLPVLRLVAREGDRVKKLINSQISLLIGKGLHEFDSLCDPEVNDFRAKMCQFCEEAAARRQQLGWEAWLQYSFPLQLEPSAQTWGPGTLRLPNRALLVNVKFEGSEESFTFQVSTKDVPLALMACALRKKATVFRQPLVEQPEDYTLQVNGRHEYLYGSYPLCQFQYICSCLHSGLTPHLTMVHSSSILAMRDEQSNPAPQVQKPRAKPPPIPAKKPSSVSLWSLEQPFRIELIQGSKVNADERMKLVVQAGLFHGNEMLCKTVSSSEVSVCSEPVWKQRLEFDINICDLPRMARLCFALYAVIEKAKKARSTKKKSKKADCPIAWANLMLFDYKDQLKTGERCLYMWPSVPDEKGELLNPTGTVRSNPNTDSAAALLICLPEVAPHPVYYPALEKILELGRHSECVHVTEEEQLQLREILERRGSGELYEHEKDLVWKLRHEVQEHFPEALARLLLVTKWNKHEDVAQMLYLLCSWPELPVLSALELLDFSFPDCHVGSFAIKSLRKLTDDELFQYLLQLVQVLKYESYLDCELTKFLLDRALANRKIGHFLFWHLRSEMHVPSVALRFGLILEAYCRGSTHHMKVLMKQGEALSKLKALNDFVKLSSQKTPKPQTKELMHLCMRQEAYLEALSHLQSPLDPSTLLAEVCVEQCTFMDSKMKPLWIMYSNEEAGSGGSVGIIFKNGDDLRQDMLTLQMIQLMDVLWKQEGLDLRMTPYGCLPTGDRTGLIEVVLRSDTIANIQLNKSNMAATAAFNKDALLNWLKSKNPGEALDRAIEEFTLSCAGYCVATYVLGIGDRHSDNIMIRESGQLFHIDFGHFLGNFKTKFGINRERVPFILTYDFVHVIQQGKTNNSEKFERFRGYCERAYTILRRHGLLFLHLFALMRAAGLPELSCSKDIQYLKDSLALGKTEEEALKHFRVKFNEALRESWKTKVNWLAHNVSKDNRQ
T21 sequence (P07949 29-1114 V804M): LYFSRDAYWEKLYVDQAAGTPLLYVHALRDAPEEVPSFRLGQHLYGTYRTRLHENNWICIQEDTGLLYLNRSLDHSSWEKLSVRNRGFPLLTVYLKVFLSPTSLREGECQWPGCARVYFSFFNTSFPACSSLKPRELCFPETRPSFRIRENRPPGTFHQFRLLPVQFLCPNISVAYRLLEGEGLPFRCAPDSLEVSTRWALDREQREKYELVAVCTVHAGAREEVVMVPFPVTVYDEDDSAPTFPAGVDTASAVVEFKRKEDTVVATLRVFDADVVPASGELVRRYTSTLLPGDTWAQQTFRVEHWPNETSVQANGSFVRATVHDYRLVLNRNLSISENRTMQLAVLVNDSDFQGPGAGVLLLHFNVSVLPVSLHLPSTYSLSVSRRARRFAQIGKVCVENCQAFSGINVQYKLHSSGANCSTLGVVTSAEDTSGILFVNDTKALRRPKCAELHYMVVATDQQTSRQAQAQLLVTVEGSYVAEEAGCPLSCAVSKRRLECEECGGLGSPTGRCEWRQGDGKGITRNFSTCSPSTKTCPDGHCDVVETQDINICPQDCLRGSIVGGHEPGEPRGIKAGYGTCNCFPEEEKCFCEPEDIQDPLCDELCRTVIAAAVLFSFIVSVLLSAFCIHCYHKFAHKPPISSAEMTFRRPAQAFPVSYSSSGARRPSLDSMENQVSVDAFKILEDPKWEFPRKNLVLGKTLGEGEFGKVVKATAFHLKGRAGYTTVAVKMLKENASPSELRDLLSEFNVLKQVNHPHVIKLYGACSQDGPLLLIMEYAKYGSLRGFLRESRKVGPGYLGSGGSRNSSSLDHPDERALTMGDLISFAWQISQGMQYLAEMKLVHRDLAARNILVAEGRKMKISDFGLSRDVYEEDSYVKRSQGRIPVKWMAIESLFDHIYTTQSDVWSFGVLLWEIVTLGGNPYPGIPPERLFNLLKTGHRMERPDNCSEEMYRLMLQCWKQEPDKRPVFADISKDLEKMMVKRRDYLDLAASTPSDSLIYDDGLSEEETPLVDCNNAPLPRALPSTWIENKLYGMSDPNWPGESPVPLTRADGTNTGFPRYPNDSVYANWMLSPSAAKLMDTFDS
Sequence of WEE1 (P30291 whole entry): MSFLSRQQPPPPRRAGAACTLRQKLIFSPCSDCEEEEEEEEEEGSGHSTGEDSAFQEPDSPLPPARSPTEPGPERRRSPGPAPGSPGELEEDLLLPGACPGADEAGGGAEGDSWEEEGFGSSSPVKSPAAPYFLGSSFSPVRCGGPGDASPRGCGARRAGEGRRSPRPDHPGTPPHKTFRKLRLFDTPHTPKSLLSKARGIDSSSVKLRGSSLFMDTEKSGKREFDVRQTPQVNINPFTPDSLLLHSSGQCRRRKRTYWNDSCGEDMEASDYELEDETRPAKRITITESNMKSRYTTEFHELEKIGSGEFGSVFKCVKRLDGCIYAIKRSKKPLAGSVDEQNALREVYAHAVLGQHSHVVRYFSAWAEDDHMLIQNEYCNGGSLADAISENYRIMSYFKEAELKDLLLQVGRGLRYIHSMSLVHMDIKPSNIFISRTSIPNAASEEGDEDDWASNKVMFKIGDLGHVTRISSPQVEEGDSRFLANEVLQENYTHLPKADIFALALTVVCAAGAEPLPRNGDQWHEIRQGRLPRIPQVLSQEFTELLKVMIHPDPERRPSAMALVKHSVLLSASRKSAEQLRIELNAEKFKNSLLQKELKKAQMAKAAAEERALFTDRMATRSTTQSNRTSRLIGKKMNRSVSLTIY
Sequence of AURKA (O14965 whole entry): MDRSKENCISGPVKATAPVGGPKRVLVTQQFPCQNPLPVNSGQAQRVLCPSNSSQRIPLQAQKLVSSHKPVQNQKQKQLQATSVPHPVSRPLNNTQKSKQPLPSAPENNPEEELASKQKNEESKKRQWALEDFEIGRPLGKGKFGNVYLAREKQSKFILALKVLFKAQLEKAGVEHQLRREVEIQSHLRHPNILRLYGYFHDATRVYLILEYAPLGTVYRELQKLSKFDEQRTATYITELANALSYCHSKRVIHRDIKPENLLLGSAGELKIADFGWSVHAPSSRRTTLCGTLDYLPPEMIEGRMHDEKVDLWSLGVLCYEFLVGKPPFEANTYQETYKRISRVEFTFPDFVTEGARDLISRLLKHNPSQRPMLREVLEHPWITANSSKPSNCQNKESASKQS
Sequence of ABL1(F317L)-phosphorylated (P00519 whole entry F317L): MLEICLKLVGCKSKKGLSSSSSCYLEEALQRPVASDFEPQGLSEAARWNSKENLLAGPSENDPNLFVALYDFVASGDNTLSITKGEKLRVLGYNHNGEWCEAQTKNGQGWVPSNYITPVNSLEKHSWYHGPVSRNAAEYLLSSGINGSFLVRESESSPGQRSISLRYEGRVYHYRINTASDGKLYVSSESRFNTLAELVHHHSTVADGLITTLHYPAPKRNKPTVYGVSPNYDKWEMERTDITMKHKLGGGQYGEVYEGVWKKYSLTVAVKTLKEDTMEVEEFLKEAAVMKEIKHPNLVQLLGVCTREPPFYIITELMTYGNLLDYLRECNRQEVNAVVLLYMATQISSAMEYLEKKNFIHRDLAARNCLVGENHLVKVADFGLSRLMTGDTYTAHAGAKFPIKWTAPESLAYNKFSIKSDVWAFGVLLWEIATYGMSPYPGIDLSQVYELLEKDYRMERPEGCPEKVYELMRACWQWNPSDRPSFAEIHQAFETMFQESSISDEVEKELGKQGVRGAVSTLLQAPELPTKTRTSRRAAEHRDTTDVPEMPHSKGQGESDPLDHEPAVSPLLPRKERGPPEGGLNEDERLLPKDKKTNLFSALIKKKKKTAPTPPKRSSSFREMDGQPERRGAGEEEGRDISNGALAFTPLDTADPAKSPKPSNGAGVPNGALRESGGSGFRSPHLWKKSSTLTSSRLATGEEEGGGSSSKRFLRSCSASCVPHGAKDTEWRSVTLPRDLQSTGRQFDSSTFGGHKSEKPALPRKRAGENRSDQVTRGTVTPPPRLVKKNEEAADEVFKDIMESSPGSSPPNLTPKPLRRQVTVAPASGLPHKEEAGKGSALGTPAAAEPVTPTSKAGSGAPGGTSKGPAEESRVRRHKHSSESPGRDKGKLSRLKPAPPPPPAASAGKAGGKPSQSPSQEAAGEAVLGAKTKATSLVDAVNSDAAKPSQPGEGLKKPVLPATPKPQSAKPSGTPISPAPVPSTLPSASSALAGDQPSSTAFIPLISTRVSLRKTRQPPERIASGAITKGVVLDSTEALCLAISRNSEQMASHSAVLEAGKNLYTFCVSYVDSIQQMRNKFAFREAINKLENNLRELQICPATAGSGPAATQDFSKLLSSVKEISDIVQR
T19 sequence (O15530 whole entry): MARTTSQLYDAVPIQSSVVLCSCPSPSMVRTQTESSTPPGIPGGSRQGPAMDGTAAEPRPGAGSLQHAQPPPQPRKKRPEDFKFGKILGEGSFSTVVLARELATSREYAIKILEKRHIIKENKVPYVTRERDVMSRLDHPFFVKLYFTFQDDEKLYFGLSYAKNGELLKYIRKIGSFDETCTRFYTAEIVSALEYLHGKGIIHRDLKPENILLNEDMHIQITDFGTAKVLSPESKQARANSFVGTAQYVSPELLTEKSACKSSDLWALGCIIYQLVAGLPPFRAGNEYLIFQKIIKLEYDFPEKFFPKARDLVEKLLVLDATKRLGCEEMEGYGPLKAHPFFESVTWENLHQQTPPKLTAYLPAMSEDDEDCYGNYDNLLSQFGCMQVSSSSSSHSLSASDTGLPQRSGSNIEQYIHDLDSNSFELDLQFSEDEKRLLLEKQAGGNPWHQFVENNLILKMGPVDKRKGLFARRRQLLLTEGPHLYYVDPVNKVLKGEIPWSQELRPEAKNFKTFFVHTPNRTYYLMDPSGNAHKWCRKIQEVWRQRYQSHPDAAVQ

NCCCNc1nc2c(Br)c(Br)c(Br)c(Br)c2[nH]1 [Compound 11, N-(3-aminopropyl)-4,5,6,7-tetrabromo-1H-benzo[d]imidazol-2-amine]
remaining binding at 1 µM (AURKB): 94% | remaining binding at 1 µM (PRKCE): 23% | remaining binding at 1 µM (SGK3): 100% | % binding (LATS2): 70% | remaining binding at 1 µM (p38-gamma): 76% | remaining binding at 1 µM (CAMK1): 98% | remaining binding at 1 µM (AURKA): 96% | remaining binding at 1 µM (CAMK2D): 100% | remaining binding at 1 µM (KIT(A829P)): 100% | % binding (SYK): 100% | remaining binding at 1 µM (ALK): 100% | remaining binding at 1 µM (MYLK2): 86% | remaining binding at 1 µM (DRAK1): 75% | remaining binding at 1 µM (ROCK2): 71% | remaining binding at 1 µM (WEE1): 91% | % binding (DCAMKL1): 96% | remaining binding at 1 µM (PRKCQ): 77% | remaining binding at 1 µM (DYRK1A): 2.6% | remaining binding at 1 µM (MAP3K4): 100% | remaining binding at 1 µM (HIPK3): 1.5% | remaining binding at 1 µM (TAOK3): 100% | remaining binding at 1 µM (TEC): 100% | remaining binding at 1 µM (ERBB3): 68% | remaining binding at 1 µM (CAMK4): 100% | remaining binding at 1 µM (PIK3CD): 100% | remaining binding at 1 µM (TRKB): 92% | remaining binding at 1 µM [1]: 100% | remaining binding at 1 µM (PDPK1): 84% | remaining binding at 1 µM (INSR): 41% | remaining binding at 1 µM (PCTK2): 100% | remaining binding at 1 µM (RET(V804M)): 100% | % binding (CDK11): 74% | remaining binding at 1 µM (PIK3CA(M1043I)): 100% | remaining binding at 1 µM (CDKL3): 98% | remaining binding at 1 µM (FLT4): 94%
